# Earlier results, collected in US20230040901A1, “PHARMACEUTICAL COMPOSITION FOR INHIBITING POSTOPERATIVE ADHESIONS” (PlantTec Medical GmbH, priority 2018, published 2023).
# Assays:
# postoperative adhesions [1] = details: 2% to 4% citrate in water or saline solution, 60 experiments on rabbits
# postoperative adhesions [2] = details: clinical application in 400 abdominal surgeries
smiles,measurement,setting,value
O=C(O)CC(O)(CC(=O)O)C(=O)O [citrate],Adhesions,postoperative adhesions [1],fewer adhesions
same,Development of adhesions,postoperative adhesions [2],clear improvement
